How the values were obtained:
[1] = system: lung cell line e.g., A549, A427, H2030; test: Cell viability assay (vital dye such as Presto Blue, fluorescence) of GMCI, AZD1775 and their combination; assay type: cell-based
lung cancer cells = test: Double-stranded DNA breaks by H2AX-Ser139 staining, confocal microscopy; assay type: cell-based; conditions: 6 hours after addition of AZD1775 (IC50 concentration) and/or GCV

## C=CCn1c(=O)c2cnc(Nc3ccc(N4CCN(C)CC4)cc3)nc2n1-c1cccc(C(C)(C)O)n1 [AZD1775]
[1]; Day 4, AZD1775 at its IC50 concentration or half of its IC50 concentration, GMCI = AdV-tk 100 MOI + ganciclovir 5 μg/ml
  cell viability (fluorescence normalized to samples that received no treatment): cytotoxic activity
[1]; stated as the concentration used in the lung cell line, half the IC50 given as 40 nM, read-out: EC50 concentration of the drug
  EC50: 0.08 µM
Lung cancer cells
  Double-stranded DNA breaks: occur
Lung cancer cells; versus untreated cells
  H2AX(Ser139) staining: large increase in H2AX staining

Reference: patent US20220211783A1, “GMCI AND DDRI COMBINATION THERAPY FOR TREATING CANCER” (Candel Therapeutics, Inc., priority 2019, published 2022)
